Like-named read-outs stand apart in the source and are kept apart here.
How the values were obtained:
[1] = rotorod toxicity, oral rat (Phase VIA/VIB); format: in vivo, male Sprague-Dawley rats; conditions: rat, in vivo, po
Procedure: (§1) Initial evaluations for anticonvulsant activity include phases I, VIA and VIB test procedures. These tests are performed intraperitoneally in male Carworth Farms No. 1 (CF1) mice, weighing 18-25 g (Phase I) or orally in male Sprague-Dawley rats, weighing 100-150 g (Phases VIA and VIB). The evaluation is based on three tests: maximal electroshock (MES), subcutaneous (scMet), and the rotorod test for neurological toxicity (Tox). (a) Anticonvulsant Screening Project, Antiepileptic Drug Development Program, National Institutes of Health, DHEW Publ (NIH)(U.S.) 1978, NIH 78-1093. (b) Porter, R. J.; Cereghino, J. J.; Gladding, G. D.; Hessie, B. J.; Kupferberg, H. J.; Scoville, B.; White, B. G. Antiepileptic drug development program. Cleveland Clin. Q. 1984, 51, 293-305. (c) Krall, R. L.; Penry, J. K.; White, B. G.; Kupferberg, H. J.; Swinyard, E. A. Antiepileptic drug development: II. Anticonvulsant drug screening. Epilepsia 1978, 19, 400-428. In the MES test, maximal electroshock seizures are elicited with a 60- cycle alternating current of 50 mA intensity (5-7 times that necessary to elicit minimal electroshock seizures) delivered via corneal electrodes for 0.2 seconds. A drop of 0.9% saline is placed on the eye prior to application of the electrodes in order to […]. Abolition of the hind limb tonic extension component of the seizure is defined as protection and results are expressed as the number of animals protected/the number of animals tested.
(§2) The rotorod test is used to evaluate neurotoxicity. The animal is placed on a 1 inch diameter knurled plastic rod rotating at 6 rpm. Normal mice can remain on a rod rotating at this speed indefinitely.
(§3) To differentiate the results between different rodent species, 4b (X=H), as well as 4a (R=H), 4e (R=Cl), 4f (R=Cl) and 4i (R=CH3) are subsequently evaluated for oral (po) activity in the rat (Phase VIA or VIB).

[2] = tested on: maximal electroshock seizures; experiment: maximal electroshock (MES) test, oral rat (Phase VIA/VIB); format: in vivo, male Sprague-Dawley rats; conditions: for ED50: MES, Phase VIB
Procedure: as §1, §3

[3] = tested on: neurotoxicity (rotorod); experiment: rotorod toxicity, oral rat (Phase VIA/VIB); format: in vivo, male Sprague-Dawley rats; conditions: rat oral, 30 mg/kg
Procedure: as §1, §2, §3

[4] = tested on: maximal electroshock seizures; experiment: maximal electroshock (MES) test, Phase I, mice ip; format: in vivo, male Carworth Farms No. 1 (CF1) mice; conditions: Mus musculus
Procedure: as §1
In phase I, compounds are suspended in 0.5% aqueous methylcellulose and are administered intraperitoneally at three dosage levels (30, 100, and 300 mg/kg) with anticonvulsant activity and motor impairment noted 30 min and 4 h (and in some cases 2 h and 6 h) after administration.

[5] = tested on: pentylenetetrazol seizures; experiment: subcutaneous pentylenetetrazol (scMet) test, Phase I, mice ip; format: in vivo, male Carworth Farms No. 1 (CF1) mice; conditions: Mus musculus, mice ip
Procedure: as §1
In the sc MET test, eighty-five mg/kg of pentylenetetrazol, which induces seizures in more than 95% of mice, is administered as a 0.5% solution subcutaneously in the posterior midline. The animal is observed for 30 minutes. Failure to observe even a threshold seizure (a single episode of clonic spasms of at least 5 seconds duration) is defined as protection and the results are expressed as the number of animals protected/ the number of animals tested. […]

[6] = tested on: neurotoxicity (rotorod); experiment: rotorod test for neurological toxicity (Tox), Phase I, mice ip; format: in vivo, male Carworth Farms No. 1 (CF1) mice
Procedure: as §1
The rotorod test is used to evaluate neurotoxicity. The animal is placed on a 1 inch diameter knurled plastic rod rotating at 6 rpm. Normal mice can remain on a rod rotating at this speed indefinitely. […]

[7] = stability in refluxing DMSO; format: physicochemical; conditions: refluxing DMSO for periods up to 40 min, forming 4m
Procedure: Without wishing to be held to any particular theory, when experimental conditions for the final step are identical for each ester, (i.e., 40 min reflux in DMSO), it is believed that the ter-butyl compound 4c (X=H) undergoes thermal decomposition to give 2,3-dihydro-1H-phenothiazin-4[10H]-one, 4d (X=H). Thermal decomposition of the desired phenothiazine 4c (X=H) to butylene and the b-keto acid (4, R=X=H) is suspected, followed by decarboxylation of the latter compound to 4d (X=H). This is substantiated by the formation of the 4c series by employing shorter reflux times in DMSO. […] Friary and coworkers have shown that 7c (R=C(CH3)3) is readily decarboxylated under acid-catalyzed conditions to form 7d (see Scheme III below). Friary, R. J.; Gilligan, J. M.; Szajewski, R. P.; Falci, K. J.; Franck, R. W. Heterocyclic syntheses via the intramolecular acylation of enamines derived from animo acids. J. Org. Chem. 1973, 38, 3487-3490. [drawing 7]

[8] = 4 h, read-out: MES 4 h (converted)
[9] = 0.5 h, 30 min, read-out: MES 30 min
[10] = 0.5 h, 30 min, read-out: MES 30 min (converted)
[11] = 0.5 h, 30 min, read-out: scMet 30 min

SMILES	TD50 [1] [mg/kg]	Tox ([3]; 0.25 h)	Tox ([3]; 0.50 h)	Tox ([3]; 1.00 h)	Tox ([3]; 2.00 h)	Tox ([3]; 4.00 h)	responders at 30 mg/kg ([4]; 4 h, read-out: MES 4 h) [%]	responders at 100 mg/kg [4, 8] [%]	responders at 10 mg/kg [4, 9] [%]	responders at 30 mg/kg [4, 10] [%]	responders at 100 mg/kg [4, 10] [%]	responders at 30 mg/kg ([2]; 0.25 h) [%]	responders at 30 mg/kg ([2]; 1.00 h) [%]	responders at 30 mg/kg ([2]; 2.00 h) [%]	responders at 30 mg/kg ([2]; 4.00 h) [%]	responders at 30 mg/kg ([2]; 0.5 h, 0.50 h) [%]	responders at 30 mg/kg [5, 11] [%]	responders at 100 mg/kg [5, 11] [%]	responders at 30 mg/kg ([5]; 4 h, read-out: scMet 4 h) [%]	responders at 100 mg/kg ([5]; 4 h, read-out: scMet 4 h) [%]	further results
COC(=O)[C@@H]1C(=O)C=C(Nc2ccc(Cl)cc2)C[C@H]1C (relative stereo) [Compound 1, methyl 4-[(4'-chlorophenyl)-amino]-6-methyl-2-oxo-3-cyclohexene-1-carboxylate, reference compound]	> 380	–	–	–	–	–	–	–	–	–	–	–	–	–	–	–	–	–	–	–	responders at 10 mg/kg ([2]; 0.25 h): 75%; responders at 10 mg/kg ([2]; 1.00 h): 100%; responders at 10 mg/kg ([2]; 2.00 h): 100%; responders at 10 mg/kg ([2]; 4.00 h): 75%; responders at 10 mg/kg ([2]; 0.5 h, 0.50 h): 100%; ED50 ([2]; first test, read-out: ED50): 5.8 mg/kg; MES (repeat test) ([2]; repeat test, 0.50 h): 3/4; MES (repeat test) ([2]; repeat test, 1.00 h): 2/4; MES (repeat test) ([2]; repeat test, 2.00 h): 1/4
CCOC(=O)[C@@H]1C(=O)C2=C(C[C@H]1C)Nc1ccccc1S2 (relative stereo) [Compound 4b, 3-Carbethoxy-2-methyl-2,3-dihydro-1H-phenothiazin-4[10H] -one]	> 500	0/4	1/2	0/4	0/4	0/4	0	0	0	33.3	100	75	50	0	100	25	0	0	0	0	responders at 10 mg/kg ([4]; 4 h, read-out: MES 4 h): 0%; ED50 ([2]; repeat test, read-out: ED50 (repeat test)): 47.2 mg/kg; protective index (TD50/ED50) ([2]; repeat test (ED50 47.2, TD50 >500 mg/kg)): > 10.6; responders at 10 mg/kg [5, 11]: 0%; responders at 10 mg/kg ([5]; 4 h, read-out: scMet 4 h): 0%; Tox 30 min ([6]; 10 mg/kg): 0/4; Tox 4 h ([6]; 10 mg/kg): 0/2; Tox 30 min ([6]; 30 mg/kg): 0/8; Tox 4 h ([6]; 30 mg/kg): 0/4; Tox 30 min ([6]; 100 mg/kg): 0/4; Tox 4 h ([6]; 100 mg/kg): 0/2
C[C@@H]1CC2=C(Sc3cc(Br)ccc3N2)C(=O)[C@H]1C(=O)OC(C)(C)C (relative stereo) [Compound 4l, 7-Bromo-3-carbo-ter-butoxy-2-methyl-2,3-dihydro-1H-phenothiazin-4[10H]-one]	–	0/4	0/4	0/4	0/4	0/4	0	66.7	0	100	100	50	100	100	100	50	0	0	0	0	responders at 300 mg/kg [4, 8]: 100%; responders at 3 mg/kg ([4]; 0.5 h, 3 mg/kg, 30 min): 0%; responders at 300 mg/kg [4, 10]: 100%; responders at 300 mg/kg ([5]; 0.5 h, 30 min, read-out: scMet 30 min (converted)): 33.3%; responders at 300 mg/kg ([5]; 4 h, read-out: scMet 4 h (converted)): 0%; Tox 30 min ([6]; 10 mg/kg): 0/4; Tox 30 min ([6]; 30 mg/kg): 0/4; Tox 4 h ([6]; 30 mg/kg): 0/2; Tox 30 min ([6]; 100 mg/kg): 0/8; Tox 4 h ([6]; 100 mg/kg): 0/4; Tox 30 min ([6]; 300 mg/kg): 0/4; Tox 4 h ([6]; 300 mg/kg): 0/2; stability in refluxing DMSO [7]: lability of the 3-carbo-ter butoxy substituent

— patent US5994349A, “3-carboalkoxy-2, 3-dihydro-1H-phenothiazin-4[10H]-one derivatives” (priority 1997, dated 1999)
